Values after ≈ are worked out from the molar mass of the structure shown.

For this data set the following is noted: buffer; pH 7.4; 200.0 µM.
`CC1CCCC(C)N1C(=O)COC(=O)CCC(=O)c1ccc(F)cc1` (stereo unspecified): the solubility (kinetic) is above 52.4 µg/mL. `O=C1CC2(CCCC2)CC(=O)N1c1ccccc1` gave a kinetic solubility above 36.5 µg/mL.

Take `CCOc1cccc(CNc2ccc(O)cc2)c1OCc1ccc(Cl)cc1`: the solubility (kinetic) is above 57.6 µg/mL.

`CC(NC(=O)c1ccc(Br)o1)C1CC2CCC1C2` (stereo unspecified) returned a solubility (kinetic) of 29.3 µg/mL (≈ 93.8 µM). Consider `CCN(CC)c1ccc(C(=O)OCC(=O)Nc2cc(C)on2)cc1`, for which the solubility (kinetic) stood at 4.6 µg/mL (≈ 13.9 µM). Then `Cc1cc(C)nc(SCC(=O)N/N=C/c2cccnc2)n1`, with above 45.2 µg/mL.

In turn, `Cc1ccc(C(=O)NCC(=O)OC(C)C(=O)Nc2ccccc2[N+](=O)[O-])s1` (stereo unspecified) registered a kinetic solubility above 58.7 µg/mL. Turning to `NC(=O)C[C@H](NC(=O)c1ccc(Cl)cc1)C(=O)OCc1ccccc1`, the solubility (kinetic) is above 54.1 µg/mL. In turn, `COc1ccc(N2CCN(C(CNC(=O)C(C)(C)C)c3ccco3)CC2)cc1` (stereo unspecified) registered a solubility (kinetic) of 54.8 µg/mL (≈ 142 µM). Next, `Cc1ccc(/C=N/n2c(C)nc3ccccc3c2=O)o1`: above 40.1 µg/mL; `NS(=O)(=O)c1ccc(CCNC(=O)c2ccc(-c3ccccc3)cc2)cc1`: below 0.4 µg/mL. Take `COc1ccc(C(=S)N2CCOCC2)cc1OC(=O)c1ccccc1`: the kinetic solubility was determined as 23.6 µg/mL (≈ 66 µM). Then `C[N+]1(C)CCCC(OC(=O)C(O)(c2ccccc2)c2ccccc2)C1.[Br-]` (stereo unspecified), with above 63.1 µg/mL; and `C=CCNC(=S)NC(CC(=O)OC)c1ccc2c(c1)OCO2` (stereo unspecified), with 30.3 µg/mL (≈ 94 µM); and `Cc1cc(C(=O)NC2CCCC(C)C2C)c2ccccc2n1` (stereo unspecified), with 18.9 µg/mL (≈ 63.8 µM).

In the case of `Cl.Oc1ccc(CC2(N3CCCC3)CCCCC2)cc1`, the solubility (kinetic) is 40.5 µg/mL. Next, `Cc1cc(C(=O)NC2CCCN(Cc3ccc(Cl)cc3)C2)no1` (stereo unspecified): 39.7 µg/mL (≈ 119 µM); `O=C(Cc1ccc(Br)cc1)Nc1ncc([N+](=O)[O-])s1`: 7.8 µg/mL (≈ 22.8 µM); `COc1cc(OC)cc(C(=O)Nc2cccc3nc(C)ccc23)c1`: 2.9 µg/mL (≈ 9 µM).

For the compound `Cc1cccc2c1NC(=O)C2(O)N1CCCC(C)C1` (stereo unspecified), the solubility (kinetic) was above 39.1 µg/mL.

In turn, `COC(=O)/C(=C\C=C\c1ccccc1)NC(=O)c1ccccc1` showed a solubility (kinetic) of 6.3 µg/mL (≈ 20.5 µM).

`OCCNc1nc2ccccc2nc1NCCO`: the solubility (kinetic) is 35.2 µg/mL (≈ 142 µM). `COc1ccc(CCNC(=O)C2CCCN(c3ncccn3)C2)cc1` (stereo unspecified) returned a solubility (kinetic) of 49 µg/mL (≈ 144 µM). Next, `Cc1sc2nc(COC(=O)c3ccc(O)cc3)[nH]c(=O)c2c1C`: 8 µg/mL (≈ 24.2 µM); `O=C(CCCc1ccccc1)Nc1ccc(Br)cc1F`: below 0.7 µg/mL; `Cc1cc(NC(=O)C(=O)c2c(C)[nH]c3ccccc23)no1`: 28.2 µg/mL (≈ 99.5 µM). Compound `Cc1ccc(Nc2nc(N)nc(CCl)n2)c(C)c1` returned a solubility (kinetic) above 39.6 µg/mL. As for `N#CCSc1ccc(S(=O)(=O)N2CCOCC2)cn1`, the kinetic solubility was above 44.9 µg/mL. Consider `CCC(=NCc1cccnc1)c1c(O)n(-c2ccccc2)c(=O)[nH]c1=O`, for which the solubility (kinetic) came to 43.5 µg/mL (≈ 124 µM).

`Cc1ccc2oc(C(=O)N(Cc3ccccc3)C3CCS(=O)(=O)C3)c(C)c2c1` (stereo unspecified) had a solubility (kinetic) of 1.6 µg/mL (≈ 4.03 µM). Then `Cc1oc(C(N)=O)cc1COc1ccc(C(N)=O)cc1`, with 32.9 µg/mL (≈ 120 µM); and `Fc1ccccc1OCCCCN1CCCCC1`, with 27.7 µg/mL (≈ 110 µM); and `COc1ccc(Cl)cc1NS(=O)(=O)N1CCOCC1`, with above 46 µg/mL. Then `CN(Cc1ccccc1)S(=O)(=O)c1ccc(NC(=O)c2ccccc2C(=O)O)cc1`, with 61.7 µg/mL (≈ 145 µM); and `Cc1ccc(S(=O)(=O)N(C)C)cc1NC(=O)Nc1ccccc1F`, with 1.7 µg/mL (≈ 4.84 µM). Consider `CCN(CC)CCN(C(=O)c1cc2ccccc2cc1OC)c1nc2ccc(OC)cc2s1.Cl`, for which the solubility (kinetic) was determined as 3.7 µg/mL. Next, `O=C(CSc1ccc2ccccc2n1)c1ccccc1`: 1.5 µg/mL (≈ 5.37 µM). The compound `CN(C)/C(=N\O)c1c(Cl)cccc1Cl` yielded a solubility (kinetic) above 35 µg/mL. For `COc1ccc(CNCc2ccc(C)cc2)c(OC)c1.O=C(O)C(=O)O`, the solubility (kinetic) was determined as 40.5 µg/mL.

Regarding `O=[N+]([O-])c1ccc(/C=C/c2ccc3cccc(O)c3n2)cc1`, the solubility (kinetic) was below 0.3 µg/mL. Next, `CNS(=O)(=O)c1cccc(C(=O)OCC(=O)N2CCCC2)c1`: 45.2 µg/mL (≈ 138 µM). For the compound `COc1cccc(N2CCN(Cc3ccco3)CC2)c1`, the kinetic solubility amounted to 30.8 µg/mL (≈ 113 µM). Compound `O=C(CCCN1C(=O)c2ccccc2C1=O)NCc1ccc(F)cc1` came in with a solubility (kinetic) of 47.8 µg/mL (≈ 140 µM). As for `COc1ccccc1NC(=O)CCN1CCN(C)CC1`, the kinetic solubility stood at 38.6 µg/mL (≈ 139 µM). Then `CCOC(=O)C[n+]1ccc2c([nH]c3ccccc32)c1C.[Br-]`, with 49.7 µg/mL; and `Cc1sc2nc(SCC(=O)O)[nH]c(=O)c2c1C`, with above 40.5 µg/mL; and `CCn1ccc(C(=O)NCCCN2CCCC2=O)n1`, with above 39.6 µg/mL. The compound `CCOC(=O)Cn1nc(C)c(NC(=O)COc2ccc(OC)cc2)c1C` yielded a solubility (kinetic) above 54.2 µg/mL. `COCCN1Cc2cc(=O)n3c([nH]c4ccccc43)c2C1=N` had a kinetic solubility of 5.1 µg/mL (≈ 17.2 µM). In the case of `CCS(=O)(=O)N1CCN(c2ccnc3cc(Cl)ccc23)CC1`, the solubility (kinetic) was above 51 µg/mL. As for `CC(=O)c1cccc(NC(=O)c2cccc(NC(=O)c3ccco3)c2)c1`, the solubility (kinetic) is below 0.4 µg/mL.

The values above are taken from PubChem BioAssay AID1996.
